In ChEMBL document CHEMBL1955741, “Identification of fused bicyclic heterocycles as potent and selective 5-HT(2A) receptor antagonists for the treatment of insomnia” (Bioorg Med Chem Lett, 2012):
pKi: −log10 of the molar value. Calls of active or inactive are those of the source. The rule behind the calls is not given here.

Assays:
[1] = molecular target: T1, 5-hydroxytryptamine receptor 2C (Homo sapiens, UniProt P28335)
T1 sequence (P28335 whole entry): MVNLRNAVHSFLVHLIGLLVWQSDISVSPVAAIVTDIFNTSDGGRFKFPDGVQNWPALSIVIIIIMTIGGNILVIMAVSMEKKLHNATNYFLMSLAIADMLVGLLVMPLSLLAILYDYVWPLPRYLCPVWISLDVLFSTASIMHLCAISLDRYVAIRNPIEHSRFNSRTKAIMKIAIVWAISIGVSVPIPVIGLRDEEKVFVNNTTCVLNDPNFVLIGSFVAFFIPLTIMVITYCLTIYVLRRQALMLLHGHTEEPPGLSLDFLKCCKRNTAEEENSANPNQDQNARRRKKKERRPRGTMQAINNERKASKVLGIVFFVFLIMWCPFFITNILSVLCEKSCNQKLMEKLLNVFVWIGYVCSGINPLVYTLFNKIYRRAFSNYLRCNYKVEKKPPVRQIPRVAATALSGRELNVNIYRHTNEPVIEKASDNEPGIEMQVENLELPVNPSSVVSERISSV

[2] = molecular target: 5-hydroxytryptamine receptor 2A (Homo sapiens, UniProt P28223)
Description: Displacement of [125I]-DOI from recombinant human 5HT2A receptor

[3] = system: Rattus norvegicus; assay: Inhibition of DOI-induced hypolocomotion in rat at 3 mg/kg coadministered with DOI 10 mins prior testing; format: functional, organism-based; design: dose 3 mg/kg
[4] = system: Rattus norvegicus; assay: Total clearance in iv dosed rat; format: ADME, organism-based; details: in vivo
[5] = system: Rattus norvegicus; assay: Oral bioavailability in rat; format: ADME, organism-based; details: in vivo
[6] = Plasma concentration in rat at 3 mg/kg after 0.75 hrs; format: ADME, organism-based; design: dose 3 mg/kg
[7] = Half life in po dosed rat; format: ADME, organism-based; details: in vivo
[8] = system: Rattus norvegicus; assay: Volume of distribution at steady state in […] rat; format: ADME, organism-based; details: in vivo
[9] = system: Rattus norvegicus; assay: Inhibition of DOI-induced hypolocomotion in rat at 1 mg/kg coadministered with DOI 10 mins prior testing; format: functional, organism-based; design: dose 1 mg/kg

5-hydroxytryptamine receptor 2A, sequence (P28223 whole entry): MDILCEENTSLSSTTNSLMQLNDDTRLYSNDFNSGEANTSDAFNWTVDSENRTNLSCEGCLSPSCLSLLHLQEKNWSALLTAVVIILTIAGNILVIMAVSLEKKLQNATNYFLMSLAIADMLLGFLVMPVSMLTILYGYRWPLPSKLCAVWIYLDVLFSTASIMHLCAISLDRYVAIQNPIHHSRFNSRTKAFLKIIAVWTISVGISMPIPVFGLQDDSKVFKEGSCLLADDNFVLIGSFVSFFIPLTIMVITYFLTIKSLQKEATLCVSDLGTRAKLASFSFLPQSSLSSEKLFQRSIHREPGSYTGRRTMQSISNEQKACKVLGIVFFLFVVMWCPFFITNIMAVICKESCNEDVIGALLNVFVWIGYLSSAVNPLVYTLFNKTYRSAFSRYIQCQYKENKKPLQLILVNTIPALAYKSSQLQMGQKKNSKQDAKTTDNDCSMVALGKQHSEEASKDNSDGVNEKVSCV

In the case of `O=C(c1cnn2cccnc12)N1CCN(CCc2ccc(F)cc2F)CC1`, the pKi [1] was 6.04 and the pKi [2] was 8.42.

Work on `O=C(c1cc2ccccn2n1)N1CCN(CCc2ccc(F)cc2F)CC1` yielded a pKi [1] of 6.33 and a pKi [2] of 8.24.

`O=C(c1cnn2c1CCCC2)N1CCN(CCc2ccc(F)cc2F)CC1` gave a pKi [1] of 5.54 and a pKi [2] of 7.74.

In the case of `Cn1cc(Br)c(C(=O)N2CCN(CCc3ccc(F)cc3)CC2)n1`, the Activity [3] was “Active”, the clearance [4] was 155 mL/min/kg and the bioavailability [5] was 9%. It also gave a concentration at 0.75 h [6] of 8.3 ng/mL, a half-life [7] of 1.4 h and a Vdss [8] of 8.1 L/kg.

In the case of `O=C(c1cnc2ccccn12)N1CCN(CCc2ccc(F)cc2F)CC1`, the pKi [1] was 6.13 and the pKi [2] was 8.77.

In the case of `Cn1cc(Br)c(C(=O)N2CCN(CC(=O)c3ccc(F)cc3)CC2)n1`, the Activity [9] was “Active”.

Compound `O=C(c1cc2ncccn2n1)N1CCN(CCc2ccc(F)cc2F)CC1` has a pKi [1] of 5.87 and a pKi [2] of 8.25.

In the case of `Nc1cccn2cc(C(=O)N3CCN(CCc4ccc(F)cc4F)CC3)nc12`, the pKi [1] was 6.72 and the pKi [2] was 8.57.

`N#Cc1cn2cccc(C(=O)N3CCN(CCc4ccc(F)cc4F)CC3)c2n1` showed a pKi [1] of 5.16 and a pKi [2] of 8.55.

For `O=C(c1cc(Br)cn2ccnc12)N1CCN(CCc2ccc(F)cc2F)CC1`, the pKi [1] was 6.32 and the pKi [2] was 8.30.

With `O=C(c1cn2ccccc2n1)N1CCN(CCc2ccc(F)cc2F)CC1` the pKi [1] was 6.22 and the pKi [2] was 8.37.

In the case of `Cc1nc2ccccn2c1C(=O)N1CCN(CCc2ccc(F)cc2F)CC1`, the pKi [1] was 6.00 and the pKi [2] was 8.46.
